Laboratory results as given in PubChem BioAssay (NCI).
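Briefly, cells in 96-well plates were exposed to five compound concentrations for 48 h, and endpoints were estimated by linear interpolation. At the GI50, growth is halved. Definition used: TGI = concentration required for complete inhibition of growth.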

Legend:
Experiment in all cases: NCI anticancer screen, dose series, 48 h
[1] = test system: EKVX NSCLC
[2] = test system: MDA-MB-435
[3] = test system: NCI-H226 lung
[4] = test system: MDA-N
[5] = test system: UACC-62 melanoma
[6] = test system: NCI-H460 lung
[7] = test system: OVCAR-8 ovarian
[8] = test system: SK-OV-3 ovarian
[9] = test system: RPMI-8226 leukemia
[10] = test system: KM12 colon
[11] = test system: NCI-H23 lung
[12] = test system: K-562 leukemia
[13] = test system: HCT-116 colon
[14] = test system: HOP-92 NSCLC
[15] = test system: SN12C renal
[16] = test system: PC-3 prostate
[17] = test system: NCI-H522 lung
[18] = test system: OVCAR-3 ovarian
[19] = test system: SR leukemia

SMILES	TGI [1] [µM]	TGI [2] [µM]	TGI [3] [µM]	TGI [4] [µM]	TGI [5] [µM]	TGI [6] [µM]	TGI [7] [µM]	TGI [8] [µM]	TGI [9] [µM]	TGI [10] [µM]	TGI [11] [µM]	TGI [12] [µM]	TGI [13] [µM]	TGI [14] [µM]	TGI [15] [µM]	TGI [16] [µM]	TGI [17] [µM]	TGI [18] [µM]	TGI [19] [µM]	GI50 [3] [µM]
Nn1c(CCCCCCCCc2nnc(COc3ccccc3)n2N)nnc1COc1ccccc1	> 100	> 100	> 100	> 100	> 100	> 100	> 100	> 100	> 100	> 100	> 100	> 100	> 100	> 100	> 100	> 100	> 100	–	–	–
Cc1nc2c(cc1C(=O)N/N=C/c1ccc([N+](=O)[O-])cc1)c(=O)n(C)c(=O)n2C	> 100	> 100	> 100	> 100	> 100	> 100	> 100	> 100	> 100	> 100	> 100	> 100	> 100	–	> 100	> 100	–	> 100	–	–
COC(=O)c1c2c(cc3c1CC1(C3)Cc3cc4c(c(C(C)=O)c3C1)CCC4)C=CC2 (stereo not given)	> 31.6	> 31.6	> 31.6	–	> 31.6	> 31.6	> 31.6	–	> 31.6	> 31.6	> 31.6	> 31.6	> 31.6	> 31.6	> 31.6	> 31.6	> 31.6	> 31.6	> 31.6	–
COc1cc2c(cc1OC)CN1CCCc3cc(OC)c(OC)cc3C1C2 (stereo not given)	> 100	47.5	96.1	42.4	> 100	> 100	> 100	> 100	–	> 100	> 100	> 100	> 100	> 100	> 100	> 100	> 100	> 100	–	–
C[n+]1c2ccccc2n2c3ccccc3c(NCCc3ccccn3)c(C#N)c21	19.5	4	16.6	4.87	–	3.61	–	17.8	–	29	11	> 100	11.8	> 100	–	23.9	3.95	> 25.7	–	–
c1cnc2c(c1)-n1cccc1C1(CCSC1)NN2 (stereo not given)	> 100	–	> 100	–	–	> 100	> 100	–	> 100	> 100	> 100	> 100	> 100	–	> 100	–	> 100	> 100	> 100	–
Cc1cc2oc(-c3ccccc3)c(C)c(=O)c2c2c1OC(C)(C)S2	> 100	–	> 100	–	> 100	> 100	> 100	> 100	> 100	> 100	> 100	> 100	> 100	> 100	> 100	–	> 100	> 100	> 100	–
Cc1ccc(NCC(=O)N2CC(=O)Nc3ccccc32)cc1	> 100	–	> 100	–	> 100	> 100	> 100	> 100	> 100	> 100	> 100	> 100	> 100	> 100	> 100	–	> 100	> 100	> 100	–
Cc1ccc(C2N=C(N)NC3=C2CCOc2c3ccc3ccccc23)cc1 (stereo not given)	> 55.1	> 23.4	> 88.4	–	57.5	> 100	> 70.5	> 100	> 63.2	> 51.1	> 79.5	> 44.1	12.3	57.5	> 72	> 75	> 100	21	> 100	28.1
Cc1ccc2c(c1)C1(OC(=O)c3ccccc31)c1ccc(F)cc1O2 (stereo not given)	> 100	–	85.8	–	> 100	–	> 100	> 100	74.1	> 100	–	> 100	> 100	> 100	> 100	–	> 100	> 100	73.8	–
CC(=O)OC1CC2(C)OC(Cc3ccccc32)O1 (stereo not given)	> 100	–	> 100	–	> 100	> 100	> 100	> 100	> 100	> 100	> 100	> 100	> 100	> 100	> 100	–	> 100	> 100	> 100	–
COc1ccc(N2C(=O)c3c(c4[nH]c5ccc(OC)cc5c4c4ccc(C(C)(C)C)cc34)C2=O)cc1	> 100	–	> 100	–	–	> 100	> 100	> 100	> 100	> 100	> 100	> 100	> 100	> 100	> 100	–	> 100	> 100	–	–
O=c1cc(N2CCCC2)[nH]c(=O)n1-c1ccc(F)cc1	> 100	> 100	50.8	> 100	> 100	> 100	> 100	> 100	> 100	> 100	> 100	> 100	> 100	> 100	> 100	> 100	> 100	> 100	–	–
COc1cccc(CCNc2c(C#N)c3nc4ccccc4n3c3ccccc23)c1	> 100	–	> 100	–	> 100	> 100	> 100	> 100	> 100	> 44.5	> 30.5	> 100	> 61.5	> 100	> 70	> 100	0.397	> 100	> 100	–
N#CCCN(CCC#N)c1ccc(C(N=Nc2ccccc2)=Nc2ccc(Cl)cc2)cc1	> 100	> 100	> 100	> 100	> 100	> 100	> 100	> 100	> 100	> 100	> 100	> 100	> 100	> 100	> 100	> 100	> 100	> 100	–	–
O=c1oc2ccccc2c(O)c1/C=N/C(=S)NCc1ccccc1	> 100	> 100	> 100	> 100	–	> 100	> 100	> 100	–	> 100	> 100	–	> 100	> 100	> 100	> 100	–	> 100	–	–
COc1cc(OC)c2c(=O)c(OC)c(-c3ccc4c(c3)OCO4)oc2c1OC	> 100	> 100	> 100	> 100	> 100	> 100	> 100	> 100	–	> 100	> 100	> 100	> 100	90.9	> 100	> 100	> 100	> 100	–	–
CC(Oc1ccc(OCC2CCCCC2)cc1)C(=O)NCCO (stereo not given)	–	–	> 100	–	> 100	> 100	> 100	> 100	–	> 100	> 100	> 100	> 100	–	> 100	–	> 100	> 100	–	–
CN1C(=O)C(C(N)=O)C2CC1(C)Oc1ccccc12 (stereo not given)	> 100	> 100	> 100	–	> 100	> 100	> 100	> 100	> 100	> 100	> 100	> 100	> 100	> 100	> 100	> 100	> 100	> 100	> 100	–
O=C(NNC(=S)Nc1ccc(Br)cc1)c1cc(-c2ccccc2)nc2ccccc12	–	43.2	73.7	–	50.2	43.5	57.7	47.5	53.7	> 100	55.8	89.8	30.4	43.4	37.1	46.3	59	33.1	40.6	–
O=c1c(C2=NCCC2)c(-c2ccc[nH]2)[nH]n1-c1ccccc1	> 100	> 100	> 100	> 100	> 100	> 100	> 100	> 100	> 100	> 100	> 100	> 100	> 100	> 100	> 100	> 100	> 100	> 100	–	–
COc1cc(CNC2=NCCC2)cc(OC)c1OC	> 100	–	> 100	> 100	> 100	> 100	> 100	> 100	–	–	> 100	> 100	> 100	> 100	> 100	> 100	> 100	> 100	–	–
CC(C)(C)OC(=O)NCCC(=O)NC1(c2cc3ccccc3s2)CCCCC1	50.6	33.1	42.4	34.2	49.1	34.3	35.8	60.1	20.5	33.5	31.4	28.9	27	33.7	34.3	37	26.2	33.2	–	–
O=c1c2ccccc2nc2n1C(c1ccc([N+](=O)[O-])cc1)C2(c1ccccc1)c1ccccc1 (stereo not given)	> 100	> 100	–	> 100	> 100	> 100	> 100	> 100	> 100	> 100	> 100	–	> 100	> 100	> 100	> 100	> 100	> 100	–	–
CCC12CCCNC1c1c(n(C)c3ccccc13)C(C(=O)OC)C2 (stereo not given)	> 275	–	> 275	–	> 275	> 275	> 275	186	199	161	252	> 275	> 275	113	> 275	–	37.6	91.1	> 275	–
COC(=O)c1ccc(NCc2c(O)ccc(O)c2Br)cc1Cl	28.5	26.5	> 100	26	30.3	41.9	30	> 100	> 100	31	32.9	–	33.3	28.4	25.7	44	3.51	20.9	–	–
CN(C)c1ccc(-c2c(C#N)c(O)n(NS(=O)(=O)c3ccccc3)c(=O)c2C#N)cc1	> 100	> 100	> 100	> 100	> 100	> 100	> 100	37	> 100	> 100	–	> 100	> 100	> 100	> 100	> 100	> 100	–	–	–
Cc1cc(C)n2c(-c3ccccc3)c(C)cc2n1	> 100	–	> 100	–	> 100	> 100	> 100	> 100	–	> 100	> 100	> 100	> 100	> 100	> 100	–	64.4	83.3	–	–
